Reference: US20100144790A1, “Use of Thalidomide for Alzheimers Disease Treatment and Prevention” (priority 2008, published 2010)
“Also recorded” adds a separate entry of the source.

Legend:
Aβ production = Aβ production in Thalidomide-treated APP23 mice; assay type: in vivo, mouse; details: Thalidomide 100 mg/kg/day i.p.
Procedure: (§1) Thalidomide is an effective BACE1 inhibitor. The Thalidomide used to test effectiveness was ordered from Sigma, T144, 1.0 gram. The Thalidomide dose was 100 mg/kg/day. The application of Thalidomide to the mice born by the same mother was during the period from 9 months old to 12 months old. The preparation of Thalidomide was at first to be dissolved in DMSO and then diluted with saline. The injection into peritoneal cavity was performed once a day for 3 months. In general, the average weight of the mice was 30 grams. The volume of injection was 100 mg/kg/day×0.03 Kg/mouse=3 mg/mouse/day (if 10 mg/ml of Thalidomide, then 300 ul/mouse/day). […] The amyloid plaque number was 84.6/section in untreated control APP23 mice, where as there was only 3.91/section in the Thalidomide-treated APP23 mice. Use of Thalidomide in the transgenic mice reduced Aβ plaque formation and Aβ production, which is correlated to the reduced BACE1 enzymatic activity and protein level. […]
APP23 and wild-type mice (n=10 per group) were killed at 12 and 24 mo of age, and one hemisphere of the brain was homogenized in homogenization buffer (250 mM sucrose, 20 mM Tris-HCl, pH 7.4, 1 mM EDTA, and 1 mM EGTA). […] Protein concentration was measured by protein assay (Bio-Rad Laboratories). […] Aβ40 and Aβ42 were measured with an Aβ40 and Aβ42 ELISA kit (Biosource International). […]

APP23 transgenic mice [1] = assay: Neuronal loss in Thalidomide-treated APP23 mice; assay type: in vivo, mouse; details: Thalidomide 100 mg/kg/day i.p.
Procedure: as §1
(§2) Quantitation of immunoreactive structures 30-μm serial sagittal sections through the entire rostrocaudal extent of the hippocampus were cut on a cryostat. […] For each section, we delineated a 400-μm^2 area in CA1 and in the entorhinal cortex and counted all NeuN-immunoreactive cells within that 400-μm^2 box. The mean sum of neurons was counted per animal (n=10). […] We also measured the diameter of each counted plaque. […]

[2] = test system: Aβ deposition in the brain of APP23 mice; assay: Aβ plaque number by 6E10 immunostaining in APP23 mice after Thalidomide injection; assay type: in vivo, mouse; details: Thalidomide 100 mg/kg
Procedure: as §1, §2

[3] = cited from earlier work
APP23 transgenic mice [4] = assay: Aβ-related memory deficits in Thalidomide-treated APP23 mice; assay type: in vivo, mouse; details: Thalidomide 100 mg/kg/day i.p.
Procedure: The Thalidomide used to test effectiveness was ordered from Sigma, T144, 1.0 gram. […] The application of Thalidomide to the mice born by the same mother was during the period from 9 months old to 12 months old. The preparation of Thalidomide was at first to be dissolved in DMSO and then diluted with saline. The injection into peritoneal cavity was performed once a day for 3 months. In general, the average weight of the mice was 30 grams. […] The Hole-board memory task was used to measure a mouse's ability to remember which one out of four equidistant holes was baited with food. Two photobeam apparatuses were used with a hole board for assessing directed exploration in mice for behavioral tests. A tested mouse (n=10 for each group) was placed in the center of the hole-board and the number of nose pokes was automatically registered for 5 min. […] The number of head dips, time spent head-dipping, and the number of rearings was recorded. A comprehensive cognitive performance was determined by calculating the mean number of correct pokes per trial that mouse made each day. Cognition was expressed as the percentage of correct pokes. The measurements in the hole-board test were analyzed by unpaired t test. […] A recognition index was calculated for each mouse, expressed as the ratio (100TB)×(TA+TB), where TA and TB are the time spent during the second trial on subject A and subject B, respectively.

BACE1 [5] = assay: BACE1 protein level in Thalidomide-treated APP23 mice; assay type: in vivo, mouse; details: Thalidomide 100 mg/kg/day i.p.
Procedure: as §1, with “level. Thus Thalidomide can decrease CSF BACE1 and CSF Aβ in AD and MCI patients.” for “level.”
One BACE1 ELISA used a combination of a highly specific anti-BACE1 polyclonal antibody SECB2 as a capture antibody and biotinylated anti-BACE1 polyclonal antibody SECB1 as a detection antibody. […] The concentration of BACE1 will be calculated from the standard curve and expressed as μg/ml.

BACE1 [6] = molecular target: T1, BACE1 (Mus musculus, UniProt P56818); assay: BACE1 enzymatic activity in frontal cortex crude extracts of Thalidomide-treated APP23 mice (fluorescent-labeled APP peptide); assay type: in vivo; details: Thalidomide 100 mg/kg
T1 construct: the frontal cortices of 12-months old APP23 transgenic mice after Thalidomide treatment with doses of 100 mg/kg for one month were obtained for the enzymatic crude extracts; from tissue; host or cells: frontal cortex / brain homogenate of APP23 transgenic mice (C57BL/6 background)
Procedure: Thalidomide is an effective BACE1 inhibitor. The Thalidomide used to test effectiveness was ordered from Sigma, T144, 1.0 gram. The Thalidomide dose was 100 mg/kg/day. The application of Thalidomide to the mice born by the same mother was during the period from 9 months old to 12 months old. The preparation of Thalidomide was at first to be dissolved in DMSO and then diluted with saline. The injection into peritoneal cavity was performed once a day for 3 months. In general, the average weight of the mice was 30 grams. The volume of injection was 100 mg/kg/day×0.03 Kg/mouse=3 mg/mouse/day (if 10 mg/ml of Thalidomide, then 300 ul/mouse/day). […]
BACE1 enzymatic activity was measured by using an aliquot of brain homogenate from APP23 and the wild-type mice. […] An equal amount of protein was mixed with 100 μl of substrate, and fluorescence intensity was measured with a microplate reader (BioTek) at an excitation wavelength of 320 nm and an emission wavelength of 390 nm.
To evaluate the BACE1 enzymatic activity level under the impact of Thalidomide, the frontal cortices of 12-months old APP23 transgenic mice after Thalidomide treatment with doses of 100 mg/kg for one month were obtained for the enzymatic crude extracts. […] The specific fluorescence was detected when labeled APPwt or APPsw peptides were cleaved by BACE1. […]

BACE1 [7] = molecular target: T2, BACE1 (Homo sapiens, UniProt P56817); assay: BACE1 enzymatic activity of AD brain crude extracts with caspase inhibitor; assay type: biochemical; details: AD brain enzymatic crude extracts incubated with the caspase inhibitor
T2 construct: from tissue; host or cells: post-mortem brain of sporadic AD patients (temporal cortex / hippocampus samples)
Excerpt: BACE1 enzymatic activity level increased in brains of AD patients. Fluorescent transfer peptides bearing the APP wild-type peptide (APPwt) BACE1 cleavage site (KTEEISEVKMDAE) or APP Swedish mutation (APPsw) BACE1 cleavage site ([…]) were used to test BACE1 enzymatic activity. These peptides were also labeled with methoxycoumarin acetic acid (MCA) and dinitrophenyl (DNP). As a positive control, we transiently transfected BACE1 cDNA or empty vector into HEK293 cells, and observed high-intensity fluorescence with BACE1-transfected cells (FIG. 2A). Enzymatic activity, represented by the fluorescent intensity of APPwt and APPsw fragments, increased in AD brain samples compared with ND samples (FIG. 2A). Further, more APPsw fragment than the APPwt fragment was cleaved by crude extracts from AD brain (FIG. 2A).

T1 sequence (P56818 46-501): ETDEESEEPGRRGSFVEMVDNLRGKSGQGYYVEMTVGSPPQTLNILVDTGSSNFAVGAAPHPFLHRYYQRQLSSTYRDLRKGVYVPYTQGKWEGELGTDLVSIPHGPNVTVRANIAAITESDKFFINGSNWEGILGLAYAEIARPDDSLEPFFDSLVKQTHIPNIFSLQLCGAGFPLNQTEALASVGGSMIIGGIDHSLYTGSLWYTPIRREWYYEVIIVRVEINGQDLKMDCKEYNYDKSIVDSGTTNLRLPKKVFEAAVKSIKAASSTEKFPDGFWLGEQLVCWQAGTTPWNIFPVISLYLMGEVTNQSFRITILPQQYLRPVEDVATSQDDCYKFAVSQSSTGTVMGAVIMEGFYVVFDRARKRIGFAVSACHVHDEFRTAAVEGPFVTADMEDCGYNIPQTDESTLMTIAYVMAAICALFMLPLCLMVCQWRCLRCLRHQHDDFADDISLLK
T2 sequence (P56817 46-501): as the sequence (P56818 46-501) above, with S6P, I162V, I165L, T180S, A182V, V340I, A393L, H443Q counted along it

Compound | Aβ production (in words) (Aβ production) | neuronal loss (in words) (APP23 transgenic mice [1]) | Aβ plaque number ([2]; 12 months of age, frontal cortex, 6E10 immunostaining, untreated APP23 84.6/section) | Aβ deposition / Aβ plaques (in words) ([2]; versus untreated APP23 mice) | tolerability of regimen (in words) ([3]; 400 mg Thalidomide, non-elderly subjects with other conditions, without dose-related, severe or serious adverse events) | maximum tolerable doses ([3]; human, in vivo) | Aβ-related memory deficits (in words) (APP23 transgenic mice [4]) | BACE1 protein level (in words) (BACE1 [5]) | BACE1 enzymatic activity level (in words) (BACE1 [6]; 12 months old APP23 mice, frontal cortex extracts, versus untreated APP23 mice) | decrease in BACE1 activity levels (BACE1 [6]; both the in vitro and in vivo studies, APP23 mice) [%] | effect on BACE1 enzymatic activity assay (in words) (BACE1 [7])
O=C1CCC(N2C(=O)c3ccccc3C2=O)C(=O)N1 (centres unmarked) [Thalidomide] | significant reduction | decreased neuronal loss | 3.91 /section | reduced; also recorded: fewer Aβ plaques | tolerated | 400-800 mg/daily | alleviated | reduced | reduced | 42 | –
ZVAD (Ome)-CH2F | – | – | – | – | – | – | – | – | – | – | did not perturb activity
